From ChEMBL document CHEMBL1130307, “Inhibition of Matrix Metalloproteinases: An examination of the S1 pocket” (Bioorg Med Chem Lett, 1997)

Assays:
Stromelysin-1 [1] = target: T1, Stromelysin-1 (Homo sapiens, UniProt P08254)
Matrilysin = target: T2, Matrilysin (Homo sapiens, UniProt P09237)
T2 sequence (P09237 whole entry): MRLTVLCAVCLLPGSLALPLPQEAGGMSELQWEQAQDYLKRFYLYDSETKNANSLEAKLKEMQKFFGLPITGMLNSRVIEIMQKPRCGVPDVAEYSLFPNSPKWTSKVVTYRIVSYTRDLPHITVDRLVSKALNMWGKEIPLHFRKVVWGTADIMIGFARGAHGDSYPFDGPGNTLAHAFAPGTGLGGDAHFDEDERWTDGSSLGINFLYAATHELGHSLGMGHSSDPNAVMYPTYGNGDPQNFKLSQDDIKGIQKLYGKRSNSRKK

Stromelysin-1 [2] = target: T1, Stromelysin-1; remark: listed apart in the source
Interstitial collagenase [3] = target: T3, Interstitial collagenase (Homo sapiens, UniProt P03956)
T3 sequence (P03956 whole entry): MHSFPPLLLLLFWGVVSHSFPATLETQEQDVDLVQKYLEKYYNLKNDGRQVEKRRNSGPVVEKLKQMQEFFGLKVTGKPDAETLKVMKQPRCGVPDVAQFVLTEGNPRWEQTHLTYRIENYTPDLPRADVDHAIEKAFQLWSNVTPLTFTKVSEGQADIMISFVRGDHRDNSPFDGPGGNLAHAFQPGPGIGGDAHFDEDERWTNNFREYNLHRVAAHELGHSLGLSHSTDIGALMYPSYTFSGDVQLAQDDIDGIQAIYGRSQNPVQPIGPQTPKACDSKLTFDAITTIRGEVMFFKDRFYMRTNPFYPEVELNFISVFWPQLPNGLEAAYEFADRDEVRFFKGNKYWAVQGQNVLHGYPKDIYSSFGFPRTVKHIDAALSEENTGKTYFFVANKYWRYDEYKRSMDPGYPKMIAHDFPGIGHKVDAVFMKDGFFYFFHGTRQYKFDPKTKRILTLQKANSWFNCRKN

Interstitial collagenase [4] = target: T3, Interstitial collagenase; remark: listed apart in the source

T1 sequence (P08254 whole entry): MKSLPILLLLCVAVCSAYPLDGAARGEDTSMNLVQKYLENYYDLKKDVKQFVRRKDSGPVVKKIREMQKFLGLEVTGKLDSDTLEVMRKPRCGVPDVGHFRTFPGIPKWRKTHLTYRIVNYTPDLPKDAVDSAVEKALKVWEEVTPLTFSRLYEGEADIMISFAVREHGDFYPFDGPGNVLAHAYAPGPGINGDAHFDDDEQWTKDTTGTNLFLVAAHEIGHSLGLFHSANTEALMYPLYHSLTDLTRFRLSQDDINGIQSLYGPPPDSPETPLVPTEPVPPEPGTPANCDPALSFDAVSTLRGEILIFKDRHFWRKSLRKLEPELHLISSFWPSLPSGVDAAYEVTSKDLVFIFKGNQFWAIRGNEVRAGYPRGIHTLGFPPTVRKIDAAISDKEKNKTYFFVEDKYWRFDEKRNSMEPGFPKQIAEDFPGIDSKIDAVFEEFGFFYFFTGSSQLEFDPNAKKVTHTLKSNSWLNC

| SMILES | IC50 (Matrilysin) [nM] | IC50 (Stromelysin-1 [2]) [nM] | IC50 (Interstitial collagenase [3]) [nM] | other results |
| --- | --- | --- | --- | --- |
| CCCCCCCC[C@H](CC(=O)NO)C(=O)N[C@H](C(=O)NC)C(C)(C)C | 500 | – | – | IC50 (Stromelysin-1 [1]): 100 nM |
| CCCCCCCC[C@H](CC(=O)O)C(=O)N[C@@H](Cc1ccccc1)C(=O)NC | – | 5000 | – | – |
| CCCCCCCCCCCCCC[C@H](CC(=O)O)C(=O)N[C@H](C(=O)NC)C(C)(C)C | – | 4000 | – | – |
| CCCCCCCCCCCCCC[C@H](CC(=O)NO)C(=O)N[C@H](C(=O)NC)C(C)(C)C | – | – | – | IC50 (Stromelysin-1 [1]): 70 nM |
| CCCCCCCC[C@H](CC(=O)O)C(=O)N[C@H](C(=O)NC)C(C)(C)C | 40000 | 30000 | – | – |
| CCCCCCCCC[C@H](CC(=O)O)C(=O)N[C@@H](Cc1ccccc1)C(=O)NC | – | 20000 | 7000 | – |
| CCCCCCC[C@H](CC(=O)O)C(=O)N[C@@H](Cc1ccccc1)C(=O)NC | – | – | 7000 | – |
| CCCCCCCCCCCCCCCC[C@H](CC(=O)NO)C(=O)N[C@@H](Cc1ccccc1)C(=O)NC | – | 300 | – | – |
| CCCCCCCCCCCC[C@H](CC(=O)NO)C(=O)N[C@@H](Cc1ccccc1)C(=O)NC | – | 40 | 50000 | – |
| CNC(=O)[C@H](Cc1ccccc1)NC(=O)[C@H](CCCc1ccccc1)CC(=O)NO | 10000 | 500 | 1000 | – |
| CCCCCCCCCCCCCCCC[C@H](CC(=O)NO)C(=O)N[C@H](C(=O)NC)C(C)(C)C | – | – | – | IC50 (Stromelysin-1 [1]): 90 nM |
| CCCCCCCCCCCCCCC[C@H](CC(=O)O)C(=O)N[C@H](C(=O)NC)C(C)(C)C | – | 7000 | – | – |
| CCCCCCCCCCCCCCCC[C@H](CC(=O)O)C(=O)N[C@@H](Cc1ccccc1)C(=O)NC | – | 50000 | – | – |
| CCCCCC[C@H](CC(=O)O)C(=O)N[C@@H](Cc1ccccc1)C(=O)NC | – | – | 20000 | – |
| CCCCCCCCC[C@H](CC(=O)NO)C(=O)N[C@H](C(=O)NC)C(C)(C)C | – | – | – | IC50 (Interstitial collagenase [4]): 375 nM |
| CCCCCCCCC[C@H](CC(=O)NO)C(=O)N[C@@H](Cc1ccccc1)C(=O)NC | 3000 | 30 | 500 | – |
| CCCCCCCCCCCCCCCC[C@H](CC(=O)O)C(=O)N[C@H](C(=O)NC)C(C)(C)C | – | – | – | IC50 (Stromelysin-1 [1]): 10000 nM |

Now from value to compound, other results behind:

| IC50 (Matrilysin) [nM] | IC50 (Stromelysin-1 [2]) [nM] | IC50 (Interstitial collagenase [3]) [nM] | SMILES | other results |
| --- | --- | --- | --- | --- |
| 6 | – | – | CNC(=O)[C@H](Cc1ccccc1)NC(=O)[C@H](CC(C)C)[C@H](CSc1cccs1)C(=O)NO [BATIMASTAT] | – |
| 2000 | 1000 | 20 | CCCCCCCCCC[C@H](CC(=O)NO)C(=O)N[C@@H](Cc1ccccc1)C(=O)NC | – |
| 2000 | 40 | 400 | CCCCCCC[C@H](CC(=O)NO)C(=O)N[C@@H](Cc1ccccc1)C(=O)NC | – |
| 2000 | 80 | 20 | CCCCCC[C@H](CC(=O)NO)C(=O)N[C@@H](Cc1ccccc1)C(=O)NC | – |
| – | 80 | – | CCCCCCCCCCCCCC[C@H](CC(=O)NO)C(=O)N[C@@H](Cc1ccccc1)C(=O)NC | – |
| 1000 | 450 | 150 | CCCCCCCC[C@H](CC(=O)NO)C(=O)N[C@@H](Cc1ccccc1)C(=O)NC | – |
| – | 2000 | – | CCCCCCCCCCCCC[C@H](CC(=O)O)C(=O)N[C@H](C(=O)NC)C(C)(C)C | – |
| 500 | – | – | CNC(=O)[C@@H](NC(=O)[C@H](CCCCCCCCCCCCCCO)CC(=O)NO)C(C)(C)C | IC50 (Stromelysin-1 [1]): 50 nM |
| 2000 | – | – | CCCCCCCCCCCCC[C@H](CC(=O)NO)C(=O)N[C@H](C(=O)NC)C(C)(C)C | IC50 (Stromelysin-1 [1]): 60 nM |
